# Measurements taken from PubChem BioAssay (NCI).
#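 A five-concentration, 48-hour dose response in 96-well plates underlies each endpoint, interpolated linearly between surrounding concentrations. GI50: concentration for 50% inhibition of growth. Definition used: TGI = concentration required for complete inhibition of growth.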
# Tested on: MDA-MB-468 breast
# Test: growth of human tumour cells (NCI), 48 h
Compound,GI50,TGI
N#Cc1ccc(OC(=O)Nc2ccc(Cl)c(Cl)c2)cc1,3.13 µM,15.9 µM
C/C(=N\NC(=S)N1CC2CCC(CC2)C1)c1ccccn1,< 0.01 µM,0.104 µM
O=C(NO)c1ccc(CN(c2cnccn2)c2cnccn2)cc1,10.5 µM,28.4 µM
O=C(Nc1ccc(Cl)c(Cl)c1)Nc1ccccc1O,6.26 µM,33.6 µM
COc1ccc(-c2csc(NC(=O)CSc3nc(C)c(-c4ccccc4)n3Nc3ccccc3)n2)cc1,> 100 µM,> 100 µM
C[C@]12CC[C@@H]3c4ccc(O)c([N+](=O)[O-])c4CC[C@H]3[C@@H]1CC[C@@H]2NS(=O)(=O)c1cccc(Br)c1,2.74 µM,7.69 µM
O=C(Nc1ccc(-n2cc(-c3ccncc3)c(-c3ccc(O)c(Cl)c3)n2)cc1)Nc1cccc(Cl)c1Cl,9.23 µM,> 32.5 µM
Nc1ccccc1SC1CC(=O)N(c2ccc(Cl)c(Cl)c2)C1=O (stereo unspecified),18.4 µM,> 100 µM
COc1c(O)c(O)cc2c1-c1ccc(OC)c(=O)cc1C(NC(C)=O)CC2 (stereo unspecified),16.9 µM,> 100 µM
Cn1c(=O)c2c(ncn2CC(=O)Nc2ccc(-c3ccccc3)nn2)n(C)c1=O,31.4 µM,> 100 µM
CCCCCCCCCCN1CCC(N2CCCCC2)CC1,1.44 µM,3.01 µM
O=C(N/N=C/c1c(Cl)cccc1Cl)c1ccc(C(F)(F)F)nc1Nc1cccc(C(F)(F)F)c1,0.52 µM,3.62 µM
O=C(N/N=C/c1ccc([N+](=O)[O-])o1)c1ccc(O)cc1,2.44 µM,10.7 µM
CCCCCc1ccc(S(=O)(=O)Nc2cc(-c3csc(NC(C)=O)n3)ccc2N2CCN(C)CC2)cc1,3.73 µM,8.42 µM
COc1ccc2c(c1)C(C)Cc1c(ncnc1-n1cnc3cc(C)ccc31)N2C (stereo unspecified),0.0341 µM,18.9 µM
O=C(NCc1ccc(S(=O)(=O)c2cc(F)cc(F)c2)cc1)c1ccc2nccn2c1,9.27 µM,> 100 µM
CCN(CC)c1cc2oc3cc(N)cc(=N)c-3nc2cc1C,2.59 µM,9.37 µM
COC(=O)CCC1=C(CC(=O)OC)C(C)=N/C1=C\c1[nH]c(-c2ccc[nH]2)cc1OC,3.48 µM,17 µM
O=c1oc2ccc(Br)cc2c(=O)n1-c1ccc(F)cc1F,2.09 µM,5.92 µM

Compound,GI50,TGI
NC(=S)N/N=C/c1cc(-c2cccc(N)c2)ccn1,1.43 µM,4.49 µM
COc1ccc(Cc2cnc(NC(=O)c3ccc4c(c3)OCCO4)s2)cc1,0.0376 µM,24.7 µM
Cc1c2ccncc2c(C)c2c1[nH]c1ccccc12,1.16 µM,8.74 µM
Cc1cc(C)n(-c2nnc3n2N=C(c2ccc(-c4ccccc4)cc2)CS3)n1,2.27 µM,6.76 µM
CN1CCN(c2ccc(Nc3ncc4cc(C#N)c(=O)n(C5CCCC5)c4n3)cc2)CC1,3.46 µM,> 100 µM
O=C(CCCCCCNC(=O)C(O)(O)C(F)(F)F)Nc1ncc(-c2ccccc2)s1,0.748 µM,10.9 µM
O=C1C(c2ccccc2)=C(N2CCc3ccccc32)OC1(Cl)Cl,1.63 µM,3.25 µM
O=C(OCc1ccc2c(Cl)cc(Cl)c(O)c2n1)N1CCN(C(=O)c2cc3cc(F)ccc3[nH]2)CC1,0.558 µM,> 27.9 µM
CC/C=C/C/C=C/C/C=C/C/C=C/C/C=C/C/C=C/CCC(=O)Nc1ccn([C@@H]2O[C@H](CO)[C@@H](O)C2(F)F)c(=O)n1,0.384 µM,> 64.6 µM
COc1ccc(/C=C(/c2ccccc2)[N+](=O)[O-])cc1,1.46 µM,3.31 µM
Cn1cc(-c2ccc(-c3cncc(Cl)c3N3CCC4(CCNC4=O)CC3)cc2)cn1,19.9 µM,> 100 µM
Clc1cc(Cl)cc(Nc2ccc3cc(OCCCN4CCOCC4)ccc3n2)c1,2.2 µM,6.23 µM
CCCCCc1ccc(S(=O)(=O)Nc2cc(-c3csc(NC(=O)CN4CCN(CCO)CC4)n3)ccc2OC)cc1,1.75 µM,3.6 µM
CN1CCN(Cc2ccc(NC(=O)c3cncc(C#Cc4cnc5[nH]ncc5c4)c3)cc2C(F)(F)F)CC1,1.74 µM,13.5 µM
CC1C(c2ccc3c(c2)OCO3)c2cc3c(cc2OC1N1CCOCC1)OCO3 (stereo unspecified),19.6 µM,60.3 µM
COC(C(=O)[C@@H](O)[C@@H](C)O)[C@@H]1Cc2cc3cc(O[C@H]4C[C@@H](O[C@H]5C[C@@H](O)[C@H](O)C(C)O5)[C@H](O)C(C)O4)c(C)c(O)c3c(O)c2C(=O)[C@H]1O[C@H]1C[C@@H](O[C@H]2C[C@@H](O[C@H]3C[C@@H](O)[C@H](OC)C(C)O3)[C@@H](O)C(C)O2)[C@H](O)C(C)O1 (stereo partly specified),0.0329 µM,0.259 µM
COc1ccc2c(c1)c(-c1cc(N)n3nc(-c4cn(C)c5ccc(OC)cc45)cc3n1)cn2C,1.87 µM,3.66 µM
COc1ccc2c(Oc3ccc(NC(=O)c4c(C)n(CC(C)(C)O)n(-c5ccccc5)c4=O)nc3)ccnc2c1,16.1 µM,> 96.6 µM
COC[C@]12CC[C@@H](C)[C@H](C)[C@H]1C1=CC[C@@H]3[C@@]4(C)CCCNC(C)(C)[C@@H]4CC[C@@]3(C)[C@]1(C)CC2,1.71 µM,3.43 µM
